Key:
[1] = tested on: HAP1 MTAP-deleted cell line; assay: Viability assay, MTAP-deleted cell line; assay type: cell-based; details: Homo sapiens, HAP1, viability assay, MTAP-deleted cell line; read-out: HAP1 MTAP deleted viability
Text: Table 1 additionally indicates IC50 values in a viability assay for the MTAP-deleted cell line (column 10), indicating the effect of treatment with compound on cell survival.

PRMT5 [2] = molecular target: T1, PRMT5 (Homo sapiens, UniProt O14744); assay: PRMT5 biochemical IC50 assay with SAM as cofactor; details: PRMT5, SAM as cofactor; read-out: SAM IC50
T1 construct: purchased Viva (custom protein)

PRMT5 [3] = molecular target: T1, PRMT5; assay: PRMT5 biochemical IC50 assay with no cofactor; details: PRMT5, no cofactor; read-out: No Cofactor/ rel IC50
Text: Table 1 indicates IC50 values (μM) against PRMT5 for exemplary compounds in the presence of SAM as cofactor, with no cofactor, and with MTA as cofactor, respectively (columns 4-6). […] Ki values can be calculated from the IC50 values as described in the Examples section. As detailed in the Examples section, for the assay performed in the presence of SAM, IC50=Ki×1.5 (Ki=IC50/1.5).

[4] = tested on: HAP1 MTAP-intact cell line; assay: SDMA in-cell western assay, HAP1 MTAP-intact; assay type: cell-based; details: Homo sapiens, HAP1, SDMA in-cell western, HAP1 MTAP-intact; read-out: MTAP HAP1 intact IC50
In short: (§1)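 Isogenic HAP1 pair: the MTAP-intact line expresses endogenous MTAP, and the deleted line is MTAP-null. Symmetric dimethylarginine was detected by in-cell western and IC50 values derived for each line.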

PRMT5 [5] = molecular target: T1, PRMT5; assay: PRMT5 biochemical IC50 assay with MTA as cofactor; details: PRMT5, MTA as cofactor; read-out: MTA IC50
[6] = tested on: HAP1 MTAP-deleted cell line; assay: SDMA in-cell western assay, HAP1 MTAP-deleted; assay type: cell-based; details: for IC50: Homo sapiens, HAP1, SDMA in-cell western, HAP1 MTAP-deleted, read-out: HAP 1 MTAP deleted IC50; for MTAP intact/deleted ratio: IC50 ratio HAP1 MTAP-intact / HAP1 MTAP-deleted, SDMA in-cell western
In short: as §1

T1 sequence (O14744 whole entry): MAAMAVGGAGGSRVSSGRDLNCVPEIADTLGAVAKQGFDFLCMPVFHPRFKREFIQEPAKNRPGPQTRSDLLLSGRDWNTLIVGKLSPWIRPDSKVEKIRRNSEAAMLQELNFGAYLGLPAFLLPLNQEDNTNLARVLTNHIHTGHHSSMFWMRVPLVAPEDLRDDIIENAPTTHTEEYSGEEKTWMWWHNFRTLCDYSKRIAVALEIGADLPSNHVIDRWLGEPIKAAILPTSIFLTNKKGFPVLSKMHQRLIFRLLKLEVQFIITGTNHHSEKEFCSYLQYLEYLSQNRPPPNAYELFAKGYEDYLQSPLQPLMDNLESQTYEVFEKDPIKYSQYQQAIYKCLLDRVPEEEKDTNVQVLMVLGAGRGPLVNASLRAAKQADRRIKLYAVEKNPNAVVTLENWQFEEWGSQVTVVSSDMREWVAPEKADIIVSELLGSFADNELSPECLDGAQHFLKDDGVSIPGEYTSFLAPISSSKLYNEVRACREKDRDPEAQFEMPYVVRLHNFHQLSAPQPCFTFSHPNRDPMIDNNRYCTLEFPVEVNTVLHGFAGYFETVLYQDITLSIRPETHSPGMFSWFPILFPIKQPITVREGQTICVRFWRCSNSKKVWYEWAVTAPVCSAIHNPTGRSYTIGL
T1 sequence (Q9BQA1 whole entry partner): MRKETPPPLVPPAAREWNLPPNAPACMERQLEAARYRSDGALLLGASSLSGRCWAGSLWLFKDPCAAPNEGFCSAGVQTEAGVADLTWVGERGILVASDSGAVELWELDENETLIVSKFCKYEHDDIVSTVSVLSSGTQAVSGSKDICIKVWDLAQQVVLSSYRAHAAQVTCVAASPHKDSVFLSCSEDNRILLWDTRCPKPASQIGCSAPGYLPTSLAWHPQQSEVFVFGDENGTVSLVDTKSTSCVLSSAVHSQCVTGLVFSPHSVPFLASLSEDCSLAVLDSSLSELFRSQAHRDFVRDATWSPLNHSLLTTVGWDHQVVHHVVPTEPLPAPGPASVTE

IC50 (PRMT5 [2]) [nM]	IC50 (PRMT5 [3]) [nM]	IC50 [4] [nM]	IC50 (PRMT5 [5]) [nM]	IC50 [6] [nM]	Structure (SMILES)	IC50 [1] [nM]	MTAP intact/deleted ratio [6]
> 500	> 500	> 1000	50 to 500	> 1000	Cc1cncc(NC(=O)C(=O)N2C[C@H](C)CC[C@H]2c2ccc3c(c2)CCCC3)c1 (racemic) [Compound 80, N-(5-methyl-3-pyridyl)-2-[(2S,5R)-5-methyl-2-tetralin-6-yl-1-piperidyl]-2-oxo-acetamide]	> 10000	C (an IC50 ratio of less than 3 fold)
> 500	> 500	> 1000	50 to 500	100 to 1000	C[C@@H]1CC[C@@H](c2ccnn2C)N(C(=O)C(=O)Nc2cncc(C(N)=O)c2)C1 (racemic) [Compound 81, 5-(2-(5-methyl-2-(1-methyl-1H-pyrazol-5-yl)piperidin-1-yl)-2-oxoacetamido)nicotinamide]	> 10000	A (an IC50 ratio greater than or equal to 10 fold)
> 500	> 500	> 1000	50 to 500	> 1000	Cc1cncc(NC(=O)C(=O)N2C[C@H](C)CC[C@H]2c2ccc3ccccc3c2)c1 (racemic) [Compound 83, rac-2-((2R,5S)-5-methyl-2-(naphthalen-2-yl)piperidin-1-yl)-N-(5-methylpyridin-3-yl)-2-oxoacetamide]	> 10000	C (an IC50 ratio of less than 3 fold)
50 to 500	50 to 500	> 1000	50 to 500	100 to 1000	NC(=O)c1cncc(NC(=O)C(=O)N2CC3CCC(C3)C2c2ccccc2)c1 (racemic) [Compound 86, rac-5-[[2-oxo-2-[(1R,4R,5S)-4-phenyl-3-azabicyclo[3.2.1]octan-3-yl]acetyl]amino]pyridine-3-carboxamide]	> 10000	A (an IC50 ratio greater than or equal to 10 fold)
> 500	50 to 500	> 1000	50 to 500	> 1000	Cc1cncc(NC(=O)C(=O)N2C[C@H](C)CC[C@H]2c2ccc(F)cc2)c1 (racemic) [Compound 89, rac-2-((2R,5S)-2-(4-fluorophenyl)-5-methylpiperidin-1-yl)-N-(5-methylpyridin-3-yl)-2-oxoacetamide]	> 10000	C (an IC50 ratio of less than 3 fold)
> 500	> 500	> 1000	50 to 500	> 1000	Cc1cncc(NC(=O)C(=O)N2C[C@H](C)CC[C@H]2c2cccc(N)c2)c1 (racemic) [Compound 91, 2-[(2R,5S)-2-(3-aminophenyl)-5-methyl-1-piperidyl]-N-(5-methyl-3-pyridyl)-2-oxo-acetamide]	> 10000	C (an IC50 ratio of less than 3 fold)
> 500	> 500	> 1000	50 to 500	> 1000	CNC(=O)c1ccc([C@H]2CC[C@H](C)CN2C(=O)C(=O)Nc2cncc(C)c2)cc1 (racemic) [Compound 92, N-methyl-4-(5-methyl-1-(2-((5-methylpyridin-3-yl)amino)-2-oxoacetyl)piperidin-2-yl)benzamide]	> 10000	C (an IC50 ratio of less than 3 fold)
50 to 500	50 to 500	> 1000	< 50	< 100	CC(=O)N1CCC(c2cccc(C3CCCCN3C(=O)C(=O)Nc3cnc(N)c(C)c3)c2)CC1 (racemic) [Compound 95, 2-(2-(3-(1-acetylpiperidin-4-yl)phenyl)piperidin-1-yl)-N-(6-amino-5-methylpyridin-3-yl)-2-oxoacetamide]	1000 to 10000	A (an IC50 ratio greater than or equal to 10 fold)
50 to 500	50 to 500	> 1000	< 50	< 100	C[C@@H]1CC[C@@H](c2cccs2)N(C(=O)C(=O)Nc2cncc(C(N)=O)c2)C1 (racemic) [Compound 99, 5-(2-(5-methyl-2-(thiophen-2-yl)piperidin-1-yl)-2-oxoacetamido)nicotinamide]	1000 to 10000	A (an IC50 ratio greater than or equal to 10 fold)
50 to 500	50 to 500	> 1000	< 50	100 to 1000	C[C@@H]1CC[C@@H](c2cccnc2)N(C(=O)C(=O)Nc2cncc(C(N)=O)c2)C1 (racemic) [Compound 102, 5-[[2-[5-methyl-2-(3-pyridyl)-1-piperidyl]-2-oxo-acetyl]amino]pyridine-3-carboxamide]	> 10000	A (an IC50 ratio greater than or equal to 10 fold)
50 to 500	> 500	> 1000	50 to 500	> 1000	Cc1ncc([C@@H]2CC[C@@H](C)CN2C(=O)C(=O)Nc2cnc(N)c(C)c2)cn1 (racemic) [Compound 107, rac-N-(6-amino-5-methylpyridin-3-yl)-2-((2R,5S)-5-methyl-2-(2-methylpyrimidin-5-yl)piperidin-1-yl)-2-oxoacetamide]	> 10000	C (an IC50 ratio of less than 3 fold)
50 to 500	> 500	> 1000	50 to 500	> 1000	Cc1cc(NC(=O)C(=O)N2C[C@H](C)CC[C@H]2c2cncnc2)cnc1N (racemic) [Compound 109, rac-N-(6-amino-5-methylpyridin-3-yl)-2-((2R,5S)-5-methyl-2-(pyrimidin-5-yl)piperidin-1-yl)-2-oxoacetamide]	> 10000	B (an IC50 ratio greater than or equal to 3 fold but lower than 10 fold)
50 to 500	50 to 500	> 1000	50 to 500	> 1000	CC(=O)Nc1cccc([C@@H]2CC[C@@H](C)CN2C(=O)C(=O)Nc2cncc(C)c2)c1 (racemic) [Compound 110, 2-[(2S,5R)-2-(3-acetamidophenyl)-5-methyl-1-piperidyl]-N-(5-methyl-3-pyridyl)-2-oxo-acetamide]	> 10000	B (an IC50 ratio greater than or equal to 3 fold but lower than 10 fold)
50 to 500	50 to 500	> 1000	50 to 500	100 to 1000	CC(=O)Nc1ccc([C@@H]2CC[C@@H](C)CN2C(=O)C(=O)Nc2cncc(C)c2)cc1 (racemic) [Compound 111, 2-[(2R,5S)-2-(4-acetamidophenyl)-5-methyl-1-piperidyl]-N-(5-methyl-3-pyridyl)-2-oxo-acetamide]	> 10000	A (an IC50 ratio greater than or equal to 10 fold)
50 to 500	50 to 500	100 to 1000	< 50	< 100	Cc1cc(NC(=O)C(=O)N2[C@@H](C)CCC[C@H]2c2ccccc2)cnc1N (racemic) [Compound 112, N-(6-amino-5-methyl-3-pyridyl)-2-[rac-(2R,6R)-2-methyl-6-phenyl-1-piperidyl]-2-oxo-acetamide]	1000 to 10000	B (an IC50 ratio greater than or equal to 3 fold but lower than 10 fold)
50 to 500	50 to 500	> 1000	< 50	< 100	COc1cc([C@@H]2CC[C@@H](C)CN2C(=O)C(=O)Nc2cncc(C(N)=O)c2)ccc1Cl (racemic) [Compound 114, rac-rac-5-{2-[(2R,5S)-2-(4-chloro-3-methoxyphenyl)-5-methylpiperidin-1-yl]-2-oxoacetamido}pyridine-3-carboxamide]	> 10000	A (an IC50 ratio greater than or equal to 10 fold)
50 to 500	> 500	> 1000	< 50	100 to 1000	Cc1cc(C)cc([C@@H]2CC[C@@H](C)CN2C(=O)C(=O)Nc2cncc(C(N)=O)c2)c1 (racemic) [Compound 118, rac-5-{2-[(2R,5S)-2-(3,5-dimethylphenyl)-5-methylpiperidin-1-yl]-2-oxoacetamido}pyridine-3-carboxamide]	> 10000	A (an IC50 ratio greater than or equal to 10 fold)
> 500	> 500	> 1000	50 to 500	> 1000	NC(=O)c1cncc(NC(=O)C(=O)N2CCCC3(C2)OC[C@@H]2C[C@@H]23)c1 (mixture of isomers) [Compound 124, rac-5-{2-[(R,5S)-3-Oxaspiro[bicyclo[3.1.0]hexane-2,3′-piperidine]-1′-yl]-2-oxoacetamido}pyridine-3-carboxamide]	> 10000	C (an IC50 ratio of less than 3 fold)
